Assay results from patent publication US12584906B2, “Coating agent for inducing differentiation of pluripotent stem cells into brain microvascular endothelium-like cells and use thereof” (PUBLIC UNIVERSITY CORPORATION NAGOYA CITY UNIVERSITY, priority 2020, dated 2026).

Columns and labels:
[1] = test system: iBMECs derived from 610B1 strain; assay: Relative TEER values of iBMECs induced and differentiated on each coating layer (day 10 of differentiation); format: cell-based, human; conditions: for TEER value compared with iBMECs induced and differentiated on Matrigel: coating 1 μg/cm^2, FIG. 2
Procedure: A coating layer was formed using each of the above-described coating agents. Matrigel was diluted 30-fold with a maintenance medium for human iPS cells on ice, poured onto a well plate, and allowed to stand at 37° C. for 30 minutes or longer to form a coating layer. FBN, VTN-N, LN221F, LN411F, or LN511F was diluted with PBS so as to be 1 μg/cm^2, poured onto a well plate, and allowed to stand at 37° C. for 1 hour to 2 hours to form a coating layer. In addition, a mixture of Fibronectin and Collagen type IV was diluted with PBS so as to be 100 μg/mL and 400 μg/mL, respectively, poured onto a Transwell insert, and allowed to stand at 37° C. for 2 hours or longer to form a coating layer.
FIG. 1 is a scheme illustrating a protocol for differentiating human iPS cells into iBMECs. […] The differentiation induction was started in a state in which at the time of passage, the cells were seeded on a culture dish coated with each coating agent and cultured in StemSure hPSC medium containing […] FGF2 until the proportion of undifferentiated colonies reached about 60 to 70% (day 0 of differentiation). […]
TEER values of iBMECs (on day 10 of differentiation) derived from 610B1 strain, which cells had been induced and differentiated on Matrigel or FBN, VTN-N, LN221F, LN411F, or LN511F, were measured. The number of samples was 3, and relative TEER values of iBMECs induced and differentiated on FBN, VTN-N, LN221F, LN411F, or LN511F were determined based on the TEER values of iBMECs induced and differentiated on Matrigel (hereinafter, also referred to as “Matrigel-iBMECs”). In addition, for each of 610B1 strain or 648A1 strain, the TEER values of Matrigel-iBMECs or iBMECs induced and differentiated on LN221F (hereinafter, also referred to as “LN221F-iBMECs”) were measured from day 1 after seeding (day 9 of differentiation) to day 10 after seeding (day 18 of differentiation). The number of samples was set to 6, and the time-course change of the TEER values was determined. The TEER values were measured using a Millicell ERS-2 (chopstick type) according to the attached instructions. […]

[2] = test system: iBMECs derived from 610B1 strain; assay: Time-course change in TEER values, 610B1 strain; format: cell-based, human; conditions: FIG. 3
Procedure: (§1) A coating layer was formed using each of the above-described coating agents. Matrigel was diluted 30-fold with a maintenance medium for human iPS cells on ice, poured onto a well plate, and allowed to stand at 37° C. for 30 minutes or longer to form a coating layer. FBN, VTN-N, LN221F, LN411F, or LN511F was diluted with PBS so as to be 1 μg/cm^2, poured onto a well plate, and allowed to stand at 37° C. for 1 hour to 2 hours to form a coating layer. In addition, a mixture of Fibronectin and Collagen type IV was diluted with PBS so as to be 100 μg/mL and 400 μg/mL, respectively, poured onto a Transwell insert, and allowed to stand at 37° C. for 2 hours or longer to form a coating layer. […]
(§2) TEER values of iBMECs (on day 10 of differentiation) derived from 610B1 strain, which cells had been induced and differentiated on Matrigel or FBN, VTN-N, LN221F, LN411F, or LN511F, were measured. The number of samples was 3, and relative TEER values of iBMECs induced and differentiated on FBN, VTN-N, LN221F, LN411F, or LN511F were determined based on the TEER values of iBMECs induced and differentiated on Matrigel (hereinafter, also referred to as “Matrigel-iBMECs”). […] The number of samples was set to 6, and the time-course change of the TEER values was determined. The TEER values were measured using a Millicell ERS-2 (chopstick type) according to the attached instructions. […]

[3] = test system: iBMECs derived from 648A1 strain; assay: Time-course change in TEER values, 648A1 strain; format: cell-based, human; conditions: FIG. 4
Procedure: as §1, §2

[4] = test system: iBMECs derived from 610B1 strain; assay: Test for permeability of FD4 or LY, 610B1 strain; format: cell-based, human; conditions: 60 minutes, day 10 of differentiation
Procedure: (§3) FD4 or LY permeability was tested on Matrigel-iBMECs and LN221F-iBMECs derived from each of 610B1 or 648A1 strain. The number of samples was 6. On day 10 of differentiation, the culture medium was replaced with a transport buffer (HBSS containing 10 mM HEPES solution), and the cells were cultured at 37° C. for 20 minutes. The transport buffer containing 1 mg/mL FD4 or 300 μM LY was added to the apical side. After incubation at 37° C. for 60 minutes, 100 μL of the solution was collected from the basolateral side. The volume of transport buffer was 300 μL on the apical side and 800 μL on the basal side. The fluorescence intensity of FD4 or LY was measured with a Synergy HTX multimode plate reader and analyzed by Gen5 data analysis software.

[5] = test system: iBMECs derived from 648A1 strain; assay: Test for permeability of FD4 or LY, 648A1 strain; format: cell-based, human; conditions: 60 minutes, day 10 of differentiation
Procedure: as §3

[6] = test system: iBMECs derived from strain 610B1; assay: Analysis of expression levels of BMEC marker genes by RT-q PCR; format: cell-based, human; conditions: CDHS, MDR1, BCRP, ZO-1, Occludin, GLUT1, LAT1; day 10 of differentiation, corrected with HPRT1, FIG. 7
Procedure: Extraction was performed according to the attached instructions of Agencourt (registered trademark) RNAdvance Tissue Kit.
Complementary DNA (cDNA) was synthesized using ReverTra Ace (registered trademark) qPCR RT Master Mix according to the attached instructions.
The levels of gene expression in Matrigel-iBMECs or LN221F-iBMECs derived from strain 610B1 (on day 10 of differentiation) or human-derived primary BMECs (hereinafter, also referred to as “hBMECs”) were analyzed by RT-q PCR. The number of samples for Matrigel-iBMECs or LN221F-iBMECs was 3, and the number of samples for hBMECs was 1. RT-q PCR was performed with KAPA SYBR Fast qPCR Kit while using cDNA as a template according to the attached instructions. The results obtained were corrected using HPRT1 as an internal control. The relative expression levels of mRNA in LN221F-iBMECs or hBMECs were determined based on the expression levels of mRNA in Matrigel-iBMECs. […]

[7] = test system: iBMECs derived from 610B1 strain; assay: Protein expression of BMEC markers by immunostaining; format: cell-based, human; conditions: CDH5, P-gp, BCRP, ZO-1, Occludin, Claudin 5; day 10 of differentiation, FIG. 8
Procedure: Matrigel-iBMECs or LN221F-iBMECs (on day 10 of differentiation) derived from 610B1 strain were analyzed by immunostaining in order to analyze the expression levels and localizations of BMEC marker proteins. For Zonula Occludens-1 (ZO-1) and Occludin, the cells on a 96-well plate were fixed in 4 w/v % paraformaldehyde for 15 minutes at room temperature, washed twice with glycine-containing PBS, and then permeabilized with 0.1 w/v % Triton X-100-containing PBS for 25 minutes at room temperature. After blocking for 20 min at room temperature with 5% donkey serum, each primary antibody was used for reaction for 2 hours at room temperature. After washed three times with PBS, the cells were reacted with the secondary antibody, which had been diluted 200-fold, for 60 minutes at room temperature. At this time, 1 μg/mL DAPI as a nuclear staining reagent was mixed in the reaction at the same time. Thereafter, the cells were washed three times with PBS, and were analyzed with an Operetta high content imaging system. […]

P-gp = target: T1, P-gp (Homo sapiens, UniProt P08183); assay: Substrate uptake test, P-gp function (rhodamine 123 with or without cyclosporine A); format: cell-based; conditions: 10 μM rhodamine 123, 10 μM cyclosporine A, 60 minutes at 37° C., FIG. 9
T1 construct: endogenous in cells; host or cells: Matrigel-iBMECs or LN221F-iBMECs derived from 610B1 strain (iPS cells), day 10 of differentiation
T1 sequence (P08183 whole entry): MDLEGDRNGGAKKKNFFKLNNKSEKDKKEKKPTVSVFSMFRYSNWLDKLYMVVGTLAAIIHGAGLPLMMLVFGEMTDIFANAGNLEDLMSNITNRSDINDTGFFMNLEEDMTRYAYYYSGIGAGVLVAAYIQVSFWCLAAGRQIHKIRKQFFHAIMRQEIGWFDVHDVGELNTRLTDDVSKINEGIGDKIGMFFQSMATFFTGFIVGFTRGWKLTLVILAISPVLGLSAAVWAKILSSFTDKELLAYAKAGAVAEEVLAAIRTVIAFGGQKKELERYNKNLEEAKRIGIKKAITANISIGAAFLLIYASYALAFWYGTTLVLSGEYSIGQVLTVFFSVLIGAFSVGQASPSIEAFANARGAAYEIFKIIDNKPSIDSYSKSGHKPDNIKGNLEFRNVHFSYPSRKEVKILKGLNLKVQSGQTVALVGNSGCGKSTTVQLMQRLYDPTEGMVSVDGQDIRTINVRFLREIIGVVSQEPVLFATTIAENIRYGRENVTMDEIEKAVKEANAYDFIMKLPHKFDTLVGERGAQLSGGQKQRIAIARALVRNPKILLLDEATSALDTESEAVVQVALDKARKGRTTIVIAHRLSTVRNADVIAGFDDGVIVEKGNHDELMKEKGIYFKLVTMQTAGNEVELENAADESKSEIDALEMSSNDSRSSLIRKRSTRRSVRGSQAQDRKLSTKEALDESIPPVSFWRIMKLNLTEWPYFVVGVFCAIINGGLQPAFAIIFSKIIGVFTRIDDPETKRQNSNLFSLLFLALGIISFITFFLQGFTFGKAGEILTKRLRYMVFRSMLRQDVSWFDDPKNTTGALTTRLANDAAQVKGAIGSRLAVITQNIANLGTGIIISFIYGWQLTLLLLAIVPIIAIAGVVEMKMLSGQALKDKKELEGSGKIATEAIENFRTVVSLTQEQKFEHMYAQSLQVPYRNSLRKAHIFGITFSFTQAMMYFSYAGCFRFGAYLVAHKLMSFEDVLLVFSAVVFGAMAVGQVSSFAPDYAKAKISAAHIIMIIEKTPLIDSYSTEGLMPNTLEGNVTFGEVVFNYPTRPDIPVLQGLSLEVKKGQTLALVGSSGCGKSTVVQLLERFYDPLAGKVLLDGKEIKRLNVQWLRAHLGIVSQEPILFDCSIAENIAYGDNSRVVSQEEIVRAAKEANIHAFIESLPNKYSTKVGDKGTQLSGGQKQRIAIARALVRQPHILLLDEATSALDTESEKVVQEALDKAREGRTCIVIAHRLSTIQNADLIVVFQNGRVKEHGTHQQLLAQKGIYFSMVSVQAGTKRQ
Procedure: (§4) For functional analysis of P-gp and BCRP as efflux transporters, Matrigel-iBMECs or LN221F-iBMECs (on day 10 of differentiation) derived from 610B1 strain were tested for substrate uptake. As the substrate, rhodamine 123 or Hoechst 33342 was used. The culture medium was removed and the cells on a 96-well plate were pre-incubated in a transport buffer for 15 minutes at 37° C. Note that the number of samples was 6. The cells were incubated, in the presence or absence of 10 μM cyclosporine A (CsA), an inhibitor of P-gp, or 20 μM Ko 143, an inhibitor of BCRP, in a transport buffer containing 10 μM rhodamine 123 or 10 μM Hoechst 33342 for 60 minutes at 37° C. The cells were then washed three times with PBS and lysed in PBS containing 5 w/v % Triton X-100. The fluorescence intensities of rhodamine 123 or Hoechst 33342 were measured with a Synergy HTX multimode plate reader and analyzed by Gen5 data analysis software.

BCRP = target: T2, BCRP (Homo sapiens, UniProt Q9UNQ0); assay: Substrate uptake test, BCRP function (Hoechst 33342 with or without Ko 143); format: cell-based; conditions: 10 μM Hoechst 33342, 20 μM Ko 143, 60 minutes at 37° C., FIG. 10
T2 construct: endogenous in cells; host or cells: Matrigel-iBMECs or LN221F-iBMECs derived from 610B1 strain (iPS cells), day 10 of differentiation
T2 sequence (Q9UNQ0 1-655): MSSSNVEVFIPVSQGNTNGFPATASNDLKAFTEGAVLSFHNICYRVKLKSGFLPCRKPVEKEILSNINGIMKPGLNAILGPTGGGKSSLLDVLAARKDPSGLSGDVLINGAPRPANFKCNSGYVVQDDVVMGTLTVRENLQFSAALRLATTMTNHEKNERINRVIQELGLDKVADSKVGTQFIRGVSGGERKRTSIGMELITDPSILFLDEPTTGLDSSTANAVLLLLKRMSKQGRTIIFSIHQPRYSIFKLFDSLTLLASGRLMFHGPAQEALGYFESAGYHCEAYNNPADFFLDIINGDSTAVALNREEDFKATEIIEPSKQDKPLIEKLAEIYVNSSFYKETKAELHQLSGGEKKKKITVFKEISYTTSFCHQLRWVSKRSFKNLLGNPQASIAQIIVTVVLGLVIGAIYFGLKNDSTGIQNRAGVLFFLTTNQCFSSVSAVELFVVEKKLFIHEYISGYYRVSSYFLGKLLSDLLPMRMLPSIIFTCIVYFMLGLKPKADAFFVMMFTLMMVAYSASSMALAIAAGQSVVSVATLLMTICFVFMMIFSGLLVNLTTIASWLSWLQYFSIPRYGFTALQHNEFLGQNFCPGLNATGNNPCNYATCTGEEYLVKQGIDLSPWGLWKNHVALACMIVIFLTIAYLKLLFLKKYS
Procedure: as §4

accumulation of substrate in the presence of the inhibitor versus absence (P-gp function) (P-gp)	accumulation of substrate in the presence of the inhibitor versus absence (BCRP function) (BCRP)	Substance	TEER value compared with iBMECs induced and differentiated on Matrigel [1]	relative TEER value (Matrigel-iBMECs set to 1.0) ([1]; FIG. 2)	TEER value compared with Matrigel-iBMECs over a long period of time ([2]; day 1 to day 10 after seeding)	TEER value ([2]; over a long period of time)	TEER value compared with Matrigel-iBMECs over a long period of time ([3]; day 1 to day 10 after seeding)	TEER value ([3]; over a long period of time)	permeability coefficient of LY compared with Matrigel-iBMECs ([4]; 300 μM LY apical, FIG. 6)	permeability coefficient of FD4 compared with Matrigel-iBMECs ([4]; 1 mg/mL FD4 apical, FIG. 5)	permeability coefficient of LY compared with Matrigel-iBMECs ([5]; 300 μM LY apical, FIG. 6)	permeability coefficient of FD4 compared with Matrigel-iBMECs ([5]; 1 mg/mL FD4 apical, FIG. 5)	mRNA expression level of BMEC markers compared with Matrigel-iBMECs [6]	protein expression levels and localizations of BMEC markers compared with Matrigel-iBMECs [7]
		N-terminal Vitronectin [VTN-N]	higher TEER value											
larger	larger	Laminin-221 fragment [LN221F]	higher TEER value	about 2 times	higher TEER value	≥ 1000 Ω×cm^2	higher TEER value	≥ 1000 Ω×cm^2	lower permeability coefficient	lower permeability coefficient	lower permeability coefficient	lower permeability coefficient	almost equivalent	almost equivalent
